# Laboratory results: PubChem BioAssay AID274 (DTP/NCI, 2004)
# Where “and” joins values, the source holds several entries; their conditions need not be identical. Identical values can stand only once. Inconclusive results and toxic doses are left out.
# Test system: BDF1 mice, Lewis lung carcinoma iv, survival T/C
# Experiment: NCI In Vivo Anticancer Drug Screen. Data for tumor model Lewis Lung Carcinoma (intravenous) in B6D2F1 (BDF1) mice
# Conditions: endpoint: median survival time, higher = longer survival
# Method: The antitumor activity of compounds was measured in mice bearing transplantable tumors. Survival or tumor size were measured and the results are expressed as the measurement made in the treated group (T) divided by the measurement made in the vehicle treated control group (C). The tumor model used in this assay is Lewis Lung Carcinoma (intravenous) in B6D2F1 (BDF1) mice
# [1] = dose: 3.12 mg/kg/injection, schedule: Q01DX009 (ip), vehicle: saline
# [2] = dose: 6.25 mg/kg/injection, schedule: Q01DX009 (ip), vehicle: saline
# [3] = dose: 12.5 mg/kg/injection, schedule: Q01DX009 (ip), vehicle: saline
# [4] = dose: 25.0 mg/kg/injection, schedule: Q01DX009 (ip), vehicle: saline
# [5] = dose: 12.5 mg/kg/injection, schedule: Q01DX009 (ip), vehicle: saline with Tween-80
# [6] = dose: 25.0 mg/kg/injection, schedule: Q01DX009 (ip), vehicle: saline with Tween-80
# [7] = dose: 50.0 mg/kg/injection, schedule: Q01DX009 (ip), vehicle: saline with Tween-80
# [8] = dose: 100.0 mg/kg/injection, schedule: Q01DX009 (ip), vehicle: saline with Tween-80
# [9] = dose: 200.0 mg/kg/injection, schedule: Q01DX009 (ip), vehicle: saline with Tween-80
# [10] = dose: 1.0 mg/kg/injection, schedule: Q01DX009 (ip), vehicle: saline
# [11] = dose: 2.0 mg/kg/injection, schedule: Q01DX009 (ip), vehicle: saline
# [12] = dose: 50.0 mg/kg/injection, schedule: Q01DX009 (ip), vehicle: Klucel (hydroxypropylcellulose) (HPC)
# [13] = dose: 100.0 mg/kg/injection, schedule: Q01DX009 (ip), vehicle: Klucel (hydroxypropylcellulose) (HPC)
# [14] = dose: 200.0 mg/kg/injection, schedule: Q01DX009 (ip), vehicle: Klucel (hydroxypropylcellulose) (HPC)
smiles,measurement,setting,value
[N-]=[N+]=CC(=O)CCC(N)C(=O)O (centres undefined),T/C,"dose: 0.01 mg/kg/injection, schedule: Q01DX009 (ip), vehicle: saline",95 % of control
same,T/C,"dose: 0.02 mg/kg/injection, schedule: Q01DX009 (ip), vehicle: saline",98 % of control
same,T/C,"dose: 0.05 mg/kg/injection, schedule: Q01DX009 (ip), vehicle: saline",108 % of control
same,T/C,"dose: 0.1 mg/kg/injection, schedule: Q01DX009 (ip), vehicle: saline",109 % of control and 111 % of control
O=C1c2c(O)ccc(O)c2C(=O)c2c(NCCNCCO)ccc(NCCNCCO)c21,T/C,"dose: 1.0 mg/kg/injection, schedule: Q01DX005 (ip), vehicle: saline with Tween-80",276 % of control
same,T/C,"dose: 2.0 mg/kg/injection, schedule: Q01DX005 (ip), vehicle: saline with Tween-80",115 % of control
same,T/C,"dose: 4.0 mg/kg/injection, schedule: Q01DX005 (ip), vehicle: saline with Tween-80",116 % of control
O=C(CN1CC1)NCCCCCCCCNC(=O)CN1CC1,T/C,"dose: 3.13 mg/kg/injection, schedule: Q01DX009 (ip), vehicle: Klucel (hydroxypropylcellulose) (HPC)",115 % of control
same,T/C,"dose: 6.25 mg/kg/injection, schedule: Q01DX009 (ip), vehicle: Klucel (hydroxypropylcellulose) (HPC)",112 % of control
same,T/C,"dose: 12.5 mg/kg/injection, schedule: Q01DX009 (ip), vehicle: Klucel (hydroxypropylcellulose) (HPC)",119 % of control
COc1cc(NCCCCCCCNC(C)C)c2nccc(C)c2c1,T/C,[1],94 % of control
same,T/C,[2],100 % of control
same,T/C,[3],98 % of control
same,T/C,[4],108 % of control
S=P(N1CC1)(N1CC1)N1CC1,T/C,"dose: 1.0 mg/kg/injection, schedule: Q01DX009 (ip), vehicle: saline with Tween-80",106 % of control and 110 % of control and 116 % of control
same,T/C,"dose: 2.0 mg/kg/injection, schedule: Q01DX009 (ip), vehicle: saline with Tween-80",113 % of control (2×) and 116 % of control
same,T/C,"dose: 4.0 mg/kg/injection, schedule: Q01DX009 (ip), vehicle: saline with Tween-80",118 % of control and 119 % of control and 123 % of control
same,T/C,"dose: 8.0 mg/kg/injection, schedule: Q01DX009 (ip), vehicle: saline with Tween-80",100 % of control and 110 % of control
same,T/C,"dose: 16.0 mg/kg/injection, schedule: Q01DX009 (ip), vehicle: saline with Tween-80",112 % of control
C/C=C(\C)c1cc(=O)c2c(C)cc3c(c2o1)C(=O)c1c(O)c(C2CC(C)(N(C)C)C(O)C(C)O2)cc(C2CC(N(C)C)C(O)C(C)O2)c1C3=O (centres undefined),T/C,"dose: 31.25 micrograms/kg/injection, schedule: Q01DX009 (ip), vehicle: saline",103 % of control
same,T/C,"dose: 62.5 micrograms/kg/injection, schedule: Q01DX009 (ip), vehicle: saline",106 % of control
same,T/C,"dose: 125.0 micrograms/kg/injection, schedule: Q01DX009 (ip), vehicle: saline",112 % of control
same,T/C,"dose: 250.0 micrograms/kg/injection, schedule: Q01DX009 (ip), vehicle: saline",86 % of control
OCCOCC(F)(F)F,T/C,"dose: 6.25 mg/kg/injection, schedule: Q01DX009 (ip), vehicle: saline with Tween-80",98 % of control
same,T/C,[5],86 % of control
same,T/C,[6],106 % of control
same,T/C,[4],89 % of control
same,T/C,[7],90 % of control
same,T/C,[8],102 % of control
same,T/C,[9],103 % of control
CC(=O)OCC1OC(OC(C)=O)C(NC(=O)N(CCCl)N=O)C(OC(C)=O)C1OC(C)=O (centres undefined),T/C,"dose: 0.75 mg/kg/injection, schedule: Q01DX009 (ip), vehicle: Klucel (hydroxypropylcellulose) (HPC)",105 % of control
same,T/C,"dose: 1.5 mg/kg/injection, schedule: Q01DX009 (ip), vehicle: Klucel (hydroxypropylcellulose) (HPC)",105 % of control
same,T/C,"dose: 3.0 mg/kg/injection, schedule: Q01DX009 (ip), vehicle: Klucel (hydroxypropylcellulose) (HPC)",110 % of control
same,T/C,"dose: 6.0 mg/kg/injection, schedule: Q01DX009 (ip), vehicle: Klucel (hydroxypropylcellulose) (HPC)",110 % of control
CCCCCCCCCCCCN1C(C)=CS/C1=C\C=C\c1scc(C)[n+]1CCCCCCCCCCCC,T/C,"dose: 0.78 mg/kg/injection, schedule: Q01DX009 (ip), vehicle: saline with Tween-80",95 % of control
same,T/C,"dose: 1.56 mg/kg/injection, schedule: Q01DX009 (ip), vehicle: saline with Tween-80",98 % of control
same,T/C,"dose: 3.12 mg/kg/injection, schedule: Q01DX009 (ip), vehicle: saline with Tween-80",91 % of control
[Cl][Mn][Cl],T/C,[10],109 % of control
same,T/C,[11],99 % of control
same,T/C,"dose: 4.0 mg/kg/injection, schedule: Q01DX009 (ip), vehicle: saline",105 % of control and 90 % of control
same,T/C,"dose: 8.0 mg/kg/injection, schedule: Q01DX009 (ip), vehicle: saline",101 % of control and 121 % of control
same,T/C,"dose: 16.0 mg/kg/injection, schedule: Q01DX009 (ip), vehicle: saline",91 % of control and 101 % of control
same,T/C,"dose: 32.0 mg/kg/injection, schedule: Q01DX009 (ip), vehicle: saline",94 % of control and 98 % of control
same,T/C,"dose: 64.0 mg/kg/injection, schedule: Q01DX009 (ip), vehicle: saline",96 % of control and 108 % of control
CC12CC(C(=O)O)C3(O)CC(C)(C1)CC(C)(C2)C3 (centres undefined) (tested in a mixture with another compound),T/C,[5],99 % of control
same,T/C,[6],86 % of control
same,T/C,[7],89 % of control
same,T/C,[8],94 % of control
same,T/C,[9],99 % of control
COc1cc(OC)c(OC)cc1/C=C\c1ccnc2ccccc12,T/C,"dose: 25.0 mg/kg/injection, schedule: Q01DX009 (ip), vehicle: Klucel (hydroxypropylcellulose) (HPC)",113 % of control
same,T/C,[12],105 % of control
same,T/C,[13],100 % of control
same,T/C,[14],107 % of control
C/C=C/C1=CC(=O)C(O)C1O (centres undefined),T/C,"dose: 25.0 mg/kg/injection, schedule: Q01DX009 (ip), vehicle: water",103 % of control
same,T/C,"dose: 50.0 mg/kg/injection, schedule: Q01DX009 (ip), vehicle: water",99 % of control
same,T/C,"dose: 100.0 mg/kg/injection, schedule: Q01DX009 (ip), vehicle: water",101 % of control
Cc1c(N)nc([C@H](CC(N)=O)NC[C@H](N)C(N)=O)nc1C(=O)N[C@H](C(=O)N[C@H](C)[C@@H](O)CC(=O)N[C@H](C(=O)NC(O[C@@H]1O[C@@H](C)[C@@H](N)[C@@H](O)[C@H]1O)C(O)c1nc(-c2nc(C(=O)NCCCCN)cs2)cs1)[C@@H](C)O)[C@@H](O[C@@H]1O[C@@H](CO)[C@@H](O)[C@H](O)[C@@H]1O[C@H]1O[C@H](CO)[C@@H](O)[C@H](OC(N)=O)[C@@H]1O)c1c[nH]cn1 (some centres undefined),T/C,[10],109 % of control
same,T/C,[11],114 % of control
CC(C)C1OC(=O)/C=C/C=C/C=C/C=C/C=C/CC(O)C(C)C(O)CC(O)CC(O)CC(O)CC(O)CC(O)CC(O)/C=C/C1C (centres undefined),T/C,[2],111 % of control
same,T/C,[3],104 % of control
same,T/C,[4],111 % of control
Nc1ccc(Cl)cc1N,T/C,[5],92 % of control
same,T/C,[6],93 % of control
same,T/C,[7],99 % of control
same,T/C,[8],104 % of control
same,T/C,[9],102 % of control
O=Cc1ccc(C=O)c(Cl)c1,T/C,[12],101 % of control
same,T/C,[13],100 % of control
same,T/C,[14],105 % of control
same,T/C,"dose: 400.0 mg/kg/injection, schedule: Q01DX009 (ip), vehicle: Klucel (hydroxypropylcellulose) (HPC)",95 % of control
COc1cc2c(c(OC)c1O)-c1ccc(OC)c(=O)cc1[C@@H](NC(=O)C(F)(F)F)CC2,T/C,"dose: 0.62 mg/kg/injection, schedule: Q01DX009 (ip), vehicle: Klucel (hydroxypropylcellulose) (HPC)",101 % of control
same,T/C,"dose: 1.25 mg/kg/injection, schedule: Q01DX009 (ip), vehicle: Klucel (hydroxypropylcellulose) (HPC)",87 % of control
same,T/C,"dose: 2.5 mg/kg/injection, schedule: Q01DX009 (ip), vehicle: Klucel (hydroxypropylcellulose) (HPC)",88 % of control
CCOC(C)C(/C=N/NC(N)=S)=NNC(N)=S (centres undefined),T/C,[5],157 % of control
same,T/C,[6],95 % of control
same,T/C,[7],104 % of control
same,T/C,[9],114 % of control
CCCNC1=C(C)C(=O)C2=C(C1=O)[C@H](COC(N)=O)[C@]1(OC)[C@@H]3N[C@@H]3CN21,T/C,"dose: 0.39 mg/kg/injection, schedule: Q01DX009 (ip), vehicle: saline",104 % of control
same,T/C,"dose: 0.78 mg/kg/injection, schedule: Q01DX009 (ip), vehicle: saline",100 % of control
same,T/C,"dose: 1.56 mg/kg/injection, schedule: Q01DX009 (ip), vehicle: saline",102 % of control
same,T/C,[1],108 % of control
CC(C)n1cc2c(N)ncnc2n1,T/C,[4],107 % of control
same,T/C,"dose: 50.0 mg/kg/injection, schedule: Q01DX009 (ip), vehicle: saline",112 % of control
same,T/C,"dose: 100.0 mg/kg/injection, schedule: Q01DX009 (ip), vehicle: saline",117 % of control
